Data taken from patent publication US20250144186A1, “NOVEL THERAPEUTIC USES OF GARDNERELLA ENDOLYSINS” (priority 2022, published 2025).
Like-named read-outs stand apart in the source and are kept apart here.

B1: PM-477: genetically engineered recombinant Gardnerella-specific endolysin, amino acid sequence SEQ ID NO: 1, His-tag cleaved off (protein)
chain: SKRGIDVSEWQGDIDFNAVKASGVEFVIIRAGYGIGCKDKWFEQNYRKAKTCGLDVGAYWYSYANSGFEAAEEAQSCVNMLSGKSFEYPVYFDLEEKSQLNRGRAFCDSLITGFCNKLESCGYYAGFYTSLSTANNLVSAHVRNRYALWIAQWNTHCSYQGSYGLWQYSSSGSVPGVAGRVDMDYAYVDYPSIIKNVGLNGYKNGGSYTAPQISSIDEVAREVINGDWGNGNERKQRLTSAGYDYASVQNKVNELLGVKAYRKSVDELAREVIRGTWGNGSTRKQRLTQAGYDYNAVQKRVNELL
modifications: His-tag cleaved off; H2B10

How the values were obtained:
[1] = 0.75% MDZ vaginal gel over 16 weeks, cited from earlier work
Six Gardnerella strains = assay: microbe, parasite or virus in culture; assay type: cell-based, Gardnerella spp.
Procedure: (§1) The final volume of the reaction was 100 µL and the reactions were performed in triplicate in 384-well plates. The OD600 was measured using a microplate reader (Tecan, Grodig, Austria) to generate timepoint 0 h baseline values. The reactions were incubated anaerobically for 24 h, then the OD600 was measured again, and the MIC was measured as the lowest concentration with OD600<0.14. […] This process was repeated for a maximum of 25 rounds. In each round, the input CFU/mL was determined by quantitative plating.
(§2) In parallel, one representative of G. vaginalis (ATCC 14018^T) was passaged 25 times with PM-477 (H2B10).

[2] = tested on: G. vaginalis (ATCC 14018T); assay: Serial passaging for resistance formation with PM-477; assay type: cell-based, Gardnerella vaginalis; details: G. vaginalis (ATCC 14018T) passaged 25 times with PM-477 (H2B10)
Procedure: as §1, §2

Row | Molecule | probability of lasting cure ([1]; 12 weeks after end of therapy (week 28)) | probability of lasting cure ([1]; after 16 weeks) | MIC (Six Gardnerella strains; Gardnerella, read-out: MIC after 9 rounds of passaging, 4 out of 6 strains, maximal concentration in use) | pre-passaging MIC range (Six Gardnerella strains; six Gardnerella strains before passaging) | MIC after 25 rounds of passaging [2]
1 | Cc1ncc([N+](=O)[O-])n1CCO [MDZ, metronidazole] | 34% | 70% | > 512 µg/mL | 8 to 256 µg/mL | –
2 | B1 | – | – | – | – | 8 µg/mL
